Measurements: US10023592B2, “Bromodomain inhibitors” (Celgene Quanticel Research, Inc., priority 2013, dated 2018)

Biological target: BRD4(BD1) (Homo sapiens (Human), UniProt O60885)
Experiment: In vitro enzyme inhibition assay (BRD4 AlphaScreen)
Type: binding
Outline: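 AlphaScreen proximity readout, using streptavidin donor and Ni-chelate acceptor beads at 5 μg/mL final, monitors biotin-H4 tetraacetylated peptide interaction with purified His-tagged BRD4.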

[1] = in vitro enzyme inhibition assay

IC50 [1] | IC50 (class symbols A/B/C) | SMILES
< 500 nM |  | CCc1ccc(S(C)(=O)=O)cc1-c1cn(C)c(=O)c2ccccc12 [Example 316, 4-(2-ethyl-5-methylsulfonylphenyl)-2-methylisoquinolin-1-one]
< 500 nM |  | Cc1cc(-c2cc(S(C)(=O)=O)ccc2OCC2CC2)cn(C2CCC2)c1=O [Example 483, 1-cyclobutyl-5-[2-(cyclopropylmethoxy)-5-methylsulfonylphenyl]-3-methylpyridin-2-one]
< 500 nM |  | Cc1cc(-c2cc(OCc3ccc(F)cc3F)cc(S(C)(=O)=O)c2)cn(C)c1=O [Example 335, 5-[3-[(2,4-difluorophenyl)methoxy]-5-methylsulfonylphenyl]-1,3-dimethylpyridin-2-one]
 | 500 to 5000 nM | COc1cccc(-c2cn(C)c(=O)c3ccccc23)c1 [Example 1, 4-(3-methoxyphenyl)-2-methylisoquinolin-1-one]
500 to 5000 nM |  | Cc1cc(=O)n(C)cc1-c1cc(S(C)(=O)=O)ccc1NCC1CC1 [Example 422, 5-[2-(cyclopropylmethylamino)-5-methylsulfonylphenyl]-1,4-dimethylpyridin-2-one]
 | 500 to 5000 nM | Cc1cc(-c2cccc(NS(C)(=O)=O)c2)cn(C)c1=O [Example 96, N-[3-(1,5-dimethyl-6-oxopyridin-3-yl)phenyl]methanesulfonamide]
< 500 nM |  | Cn1cc(-c2cc(S(C)(=O)=O)ccc2OCC2CCC2)ccc1=O [Example 460, 5-[2-(cyclobutylmethoxy)-5-methylsulfonylphenyl]-1-methylpyridin-2-one]
< 500 nM |  | Cc1cc(-c2cc(S(C)(=O)=O)ccc2O[C@H]2CC[C@@H](N)CC2)cn(C)c1=O [Example 403, 5-[2-(cis-4-aminocyclohexyl)oxy-5-methylsulfonylphenyl]-1,3-dimethylpyridin-2-one]
 | 500 to 5000 nM | COc1ccc(-c2cc(NCC3CC3)c(=O)n(C)c2)cc1NS(C)(=O)=O [Example 112, N-[5-[5-(cyclopropylmethylamino)-1-methyl-6-oxopyridin-3-yl]-2-methoxyphenyl]methanesulfonamide]
500 to 5000 nM |  | Cc1cc(-c2nc(NS(C)(=O)=O)ncc2Oc2ccc(F)cc2F)cn(CC2CCC2)c1=O [Example 298, N-[4-[1-(cyclobutylmethyl)-5-methyl-6-oxopyridin-3-yl]-5-(2,4-difluorophenoxy)pyrimidin-2-yl]methanesulfonamide]
< 500 nM |  | CCCCc1cnc(NS(=O)(=O)CC)nc1-c1cc(OC)c(=O)n(C)c1 [Example 362, N-[5-butyl-4-(5-methoxy-1-methyl-6-oxopyridin-3-yl)pyrimidin-2-yl]ethanesulfonamide]
500 to 5000 nM |  | CCS(=O)(=O)c1ccc(OC)c(-c2cc(O)c(=O)n(C)c2)c1 [Example 461, 5-(5-ethylsulfonyl-2-methoxyphenyl)-3-hydroxy-1-methylpyridin-2-one]
 | > 5000 nM | Cn1cc(-c2cccc(S(C)(=O)=O)c2)n2cncc2c1=O [Example 131, 7-methyl-5-(3-methylsulfonylphenyl)imidazo[1,5-a]pyrazin-8-one]
< 500 nM |  | CCS(=O)(=O)Nc1ccc(Oc2ccc(F)cc2F)c(-c2cn(C)c(=O)c3c2CCC3)c1 [Example 507, N-[4-(2,4-difluorophenoxy)-3-(2-methyl-1-oxo-6,7-dihydro-5H-cyclopenta[c]pyridin-4-yl)phenyl]ethanesulfonamide]
< 500 nM |  | Cn1cc(-c2cc(OCC3CC3)cc(S(C)(=O)=O)c2)c2ccoc2c1=O [Example 350, 4-[3-(cyclopropylmethoxy)-5-methylsulfonylphenyl]-6-methylfuro[2,3-c]pyridine-7-one]
 | > 5000 nM | Cn1cc(-c2ccccc2F)c2ccccc2c1=O [Example 3, 4-(2-fluorophenyl)-2-methylisoquinolin-1-one]
500 to 5000 nM |  | C#Cc1cc(-c2cc(S(C)(=O)=O)ccc2OCC2CC2)cn(C)c1=O [Example 285, 5-[2-(cyclopropylmethoxy)-5-methylsulfonylphenyl]-3-ethynyl-1-methylpyridin-2-one]

IC50 [1] | IC50 (class symbols A/B/C) | SMILES
< 500 nM |  | CCS(=O)(=O)Nc1cc(OCc2ccccc2)cc(-c2cc(C)c(=O)n(C)c2)c1 [Example 395, N-[3-(1,5-dimethyl-6-oxopyridin-3-yl)-5-phenylmethoxyphenyl]ethanesulfonamide]
 | 500 to 5000 nM | Cn1cc(-c2cccc(NS(C)(=O)=O)c2)c2cnccc2c1=O [Example 125, N-[3-(2-methyl-1-oxo-2,6-naphthyridin-4-yl)phenyl] methanesulfonamide]
 | > 5000 nM | Cn1cc(-c2ccco2)c2ccccc2c1=O [Example 66, 4-(furan-2-yl)-2-methylisoquinolin-1-one]
 | > 5000 nM | COc1ccccc1-c1cn(C)c(=O)c2ccccc12 [Example 4, 4-(2-methoxyphenyl)-2-methylisoquinolin-1-one]
< 500 nM |  | CCCc1cnc(NS(=O)(=O)CC)nc1-c1ccc(=O)n(C)c1 [Example 357, N-[4-(1-methyl-6-oxopyridin-3-yl)-5-propylpyrimidin-2-yl]ethanesulfonamide]
< 500 nM |  | Cc1cc(-c2cc(OCc3cccnc3)cc(S(C)(=O)=O)c2)cn(C)c1=O [Example 338, 1,3-dimethyl-5-[3-methylsulfonyl-5-(pyridin-3-ylmethoxy)phenyl]pyridin-2-one]
500 to 5000 nM |  | CC(C)c1cc(-c2nc(S(C)(=O)=O)ncc2Oc2ccc(F)cc2F)cn(C)c1=O [Example 273, 5-[5-(2,4-difluorophenoxy)-2-methylsulfonylpyrimidin-4-yl]-1-methyl-3-propan-2-ylpyridin-2-one]
< 500 nM |  | CCS(=O)(=O)c1ccc(NCC2CC2)c(-c2cc(OC)c(=O)n(C)c2)c1 [Example 414, 5-[2-(cyclopropylmethylamino)-5-ethylsulfonylphenyl]-3-methoxy-1-methylpyridin-2-one]
< 500 nM |  | Cn1cc(-c2cc(S(C)(=O)=O)ccc2CCC2CC2)ccc1=O [Example 315, 5-[2-(2-cyclopropylethyl)-5-methylsulfonylphenyl]-1-methylpyridin-2-one]
< 500 nM |  | CCCCc1ccc(S(C)(=O)=O)cc1-c1ccc(=O)n(C)c1 [Example 317, 5-(2-butyl-5-methylsulfonylphenyl)-1-methylpyridin-2-one]
 | > 5000 nM | CCS(=O)(=O)c1cccc(-c2cc(N)c(=O)n(C)c2)c1 [Example 108, 3-amino-5-(3-ethylsulfonylphenyl)-1-methylpyridin-2-one]
< 500 nM |  | CCCCc1cnc(S(C)(=O)=O)nc1-c1cc(C)c(=O)n(C(C)C)c1 [Example 508, 5-(5-butyl-2-methylsulfonylpyrimidin-4-yl)-3-methyl-1-propan-2-ylpyridin-2-one]
500 to 5000 nM |  | COc1cc(F)c(CS(C)(=O)=O)cc1-c1ccc(=O)n(C)c1 [Example 475, 5-[4-fluoro-2-methoxy-5-(methylsulfonylmethyl)phenyl]-1-methylpyridin-2-one]
500 to 5000 nM |  | CCS(=O)(=O)Cc1ccc(OCC(F)(F)F)c(-c2cc(C)c(=O)n(CCO)c2)c1 [Example 407, 5-[5-(ethylsulfonylmethyl)-2-(2,2,2-trifluoroethoxy)phenyl]-1-(2-hydroxyethyl)-3-methylpyridin-2-one]
< 500 nM |  | Cc1cc(-c2cc(OCC3(C)COC3)cc(S(C)(=O)=O)c2)cn(C)c1=O [Example 329, 1,3-dimethyl-5-[3-[(3-methyloxetan-3-yl)methoxy]-5-methylsulfonylphenyl]pyridin-2-one]
< 500 nM |  | CCS(=O)(=O)c1ccc(NCC2CC2)c(-c2cn(C)c(=O)c3cncn23)c1 [Example 375, 5-[2-(cyclopropylmethylamino)-5-ethylsulfonylphenyl]-7-methylimidazo[1,5-a]pyrazin-8-one]
> 5000 nM |  | CC(=O)Nc1nc(-c2cccc(NS(C)(=O)=O)c2)cn(C)c1=O [Example 478, N-[6-[3-(methanesulfonamido)phenyl]-4-methyl-3-oxopyrazin-2-yl]acetamide]

SMILES | IC50 [1] | IC50 (class symbols A/B/C)
COc1ccc(-c2cn(C)c(=O)c3cnccc23)cc1S(N)(=O)=O [Example 56, 2-methoxy-5-(2-methyl-1-oxo-2,7-naphthyridin-4-yl) benzenesulfonamide] |  | > 5000 nM
Cn1cc(-c2cccc(S(N)(=O)=O)c2)c2ccncc2c1=O [Example 55, 3-(2-methyl-1-oxo-2,7-naphthyridin-4-yl) benzenesulfonamide] |  | > 5000 nM
Cn1cc(-c2cc(NS(C)(=O)=O)ccc2Oc2ccc(F)cc2F)cc(N2CCCC2)c1=O [Example 281, N-[4-(2,4-difluorophenoxy)-3-(1-methyl-6-oxo-5-pyrrolidin-1-ylpyridin-3-yl)phenyl]methanesulfonamide] | 500 to 5000 nM | 
Cn1cc(-c2cccc(S(=O)(=O)NC3CC3)c2)c2ccccc2c1=O [Example 6, N-cyclopropyl-3-(2-methyl-1-oxoisoquinolin-4-yl) benzenesulfonamide] |  | 500 to 5000 nM
[2H]C([2H])([2H])n1cc(-c2cc(S(=O)(=O)CC)ccc2OCC)c(C)cc1=O [Example 456, 5-(2-ethoxy-5-ethylsulfonylphenyl)-1-(^2H3)methyl-4-methylpyridin-2-one] | < 500 nM | 
